# Data reported in ChEMBL document CHEMBL4190379 (Bioorg Med Chem Lett, 2018).
# Experiments:
# OPM-2 [1] = test: Antitumor activity against human OPM2 cells xenografted in SCID-beige mouse assessed as inhibition of tumor growth at 3.75 mg/kg, po qd administered for 28 days starting from 18 days post tumor inoculation; type: functional; details: OPM-2, po, read-out: TGI
# [2] = target: T1, Bromodomain-containing protein 7 (Homo sapiens) (UniProt Q9NPI1); test: Binding affinity to human BRD7 expressed in mammalian system assessed as remaining binding level at 1 uM by BROMOscan assay relative to control
# T1 sequence (whole entry): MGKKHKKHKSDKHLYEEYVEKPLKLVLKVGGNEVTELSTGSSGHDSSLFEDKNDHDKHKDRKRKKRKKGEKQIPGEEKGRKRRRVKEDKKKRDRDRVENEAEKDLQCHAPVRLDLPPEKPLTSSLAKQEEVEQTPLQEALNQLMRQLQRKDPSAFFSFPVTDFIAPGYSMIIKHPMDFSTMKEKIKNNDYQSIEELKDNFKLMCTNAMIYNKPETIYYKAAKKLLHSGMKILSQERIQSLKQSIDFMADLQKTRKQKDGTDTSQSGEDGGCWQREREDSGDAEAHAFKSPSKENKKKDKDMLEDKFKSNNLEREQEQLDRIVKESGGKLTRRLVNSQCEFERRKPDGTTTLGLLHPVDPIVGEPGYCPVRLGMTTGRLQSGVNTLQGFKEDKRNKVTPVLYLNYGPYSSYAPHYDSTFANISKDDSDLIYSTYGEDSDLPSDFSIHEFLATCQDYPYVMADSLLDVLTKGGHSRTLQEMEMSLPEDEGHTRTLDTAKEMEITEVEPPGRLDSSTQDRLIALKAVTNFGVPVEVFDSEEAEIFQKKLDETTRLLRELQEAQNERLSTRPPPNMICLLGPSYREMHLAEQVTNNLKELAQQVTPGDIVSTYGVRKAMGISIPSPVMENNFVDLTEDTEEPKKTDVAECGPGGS
# [3] = Intrinsic unbound clearance in mouse liver microsomes; type: ADME, microsome
# OPM-2 [4] = test: Antitumor activity against human OPM2 cells xenografted in SCID-beige mouse assessed as inhibition of tumor growth at 7.5 mg/kg, po qd administered for 28 days starting from 18 days post tumor inoculation; type: functional; details: OPM-2, po, read-out: TGI
# OPM-2 [5] = test: Antitumor activity against human OPM2 cells xenografted in SCID-beige mouse assessed as inhibition of tumor growth administered once daily orally for 28 days starting from 18 days post tumor inoculation; type: functional, cell-based
# [6] = AUC in mouse at 10 mg/kg, po; type: ADME, organism-based; details: in vivo
# [7] = target: Bromodomain testis-specific protein (Homo sapiens, UniProt Q58F21); test: Binding affinity to BRDT bromodomain 1 to 2 (N21to P380 amino acids) (unknown origin) using Alexa647-labeled BET-inhibitor as fluorescent probe by bromodomain TR-FRET binding assay
# [8] = target: T2, Bromodomain-containing protein 9 (Homo sapiens) (UniProt Q9H8M2); test: Binding affinity to human BRD9 expressed in bacterial system assessed as remaining binding level at 1 uM by BROMOscan assay relative to control
# T2 sequence (whole entry): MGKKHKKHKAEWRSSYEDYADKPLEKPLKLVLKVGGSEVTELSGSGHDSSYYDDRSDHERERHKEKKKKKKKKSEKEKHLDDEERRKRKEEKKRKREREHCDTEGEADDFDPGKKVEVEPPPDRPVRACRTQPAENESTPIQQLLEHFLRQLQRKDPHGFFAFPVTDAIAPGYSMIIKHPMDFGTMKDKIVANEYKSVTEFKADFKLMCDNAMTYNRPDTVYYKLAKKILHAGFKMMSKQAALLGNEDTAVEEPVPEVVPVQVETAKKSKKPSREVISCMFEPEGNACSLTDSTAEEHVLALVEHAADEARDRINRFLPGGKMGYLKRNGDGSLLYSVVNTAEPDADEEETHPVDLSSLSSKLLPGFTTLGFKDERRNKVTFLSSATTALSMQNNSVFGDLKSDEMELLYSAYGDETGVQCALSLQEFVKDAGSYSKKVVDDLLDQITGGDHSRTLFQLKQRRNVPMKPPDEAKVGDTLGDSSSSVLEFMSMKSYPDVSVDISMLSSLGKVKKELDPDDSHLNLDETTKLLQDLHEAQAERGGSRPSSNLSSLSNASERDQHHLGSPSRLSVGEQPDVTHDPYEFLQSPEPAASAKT
# Mus musculus [9] = test: Toxicity in human OPM2 cells xenografted SCID-beige mouse assessed as body weight loss at 3.75 mg/kg, po qd administered for 28 days starting from 18 days post tumor inoculation; type: organism-based; details: in vivo
# Mus musculus [10] = test: Toxicity in human OPM2 cells xenografted SCID-beige mouse assessed as body weight loss at 7.5 mg/kg, po qd administered for 28 days starting from 18 days post tumor inoculation; type: organism-based; details: in vivo
# OPM-2 [11] = test: Antitumor activity against human OPM2 cells xenografted in SCID-beige mouse assessed as inhibition of tumor growth at 0.31 mg/kg, po qd administered for 28 days starting from 18 days post tumor inoculation; type: functional; details: OPM-2, po, read-out: TGI
# OPM-2 [12] = test: Antitumor activity against human OPM2 cells xenografted in SCID-beige mouse assessed as inhibition of tumor growth at 0.62 mg/kg, po qd administered for 28 days starting from 18 days post tumor inoculation; type: functional; details: OPM-2, po, read-out: TGI
# Mus musculus [13] = test: Toxicity in human OPM2 cells xenografted SCID-beige mouse assessed as body weight loss at 0.62 mg/kg, po qd administered for 28 days starting from 18 days post tumor inoculation; type: organism-based; details: in vivo
# Mus musculus [14] = test: Toxicity in human OPM2 cells xenografted SCID-beige mouse assessed as morbidity at 0.31 mg/kg, po qd administered for 28 days starting from 18 days post tumor inoculation; type: organism-based; details: in vivo
# Mus musculus [15] = test: Toxicity in human OPM2 cells xenografted SCID-beige mouse assessed as body weight loss at 0.31 mg/kg, po qd administered for 28 days starting from 18 days post tumor inoculation; type: organism-based; details: in vivo
# Mus musculus [16] = test: Dose normalized AUC in mouse at 1 mg/kg, po; type: ADME, organism-based; details: in vivo
compound,measurement,setting,value
Cn1cc2c3c(c[nH]c(=O)c31)-c1cc(CS(C)(=O)=O)ccc1N(c1ccc(F)cc1)C2,inhibition in vivo at 3.75 mg/kg,OPM-2 [1],68%
same,Activity,[2],100%
same,CL free,[3],317 mL/min/kg
same,inhibition in vivo at 7.5 mg/kg,OPM-2 [4],84%
same,TGI,OPM-2 [5],Dose-dependent effect
same,AUC,[6],2.8 µM·h
same,Ki,[7],5.9 nM
same,Activity,[8],96%
same,Activity,Mus musculus [9],10%
same,Activity,Mus musculus [10],9%
Cn1cc2c3c(c[nH]c3c1=O)CN(c1ccc(F)cc1F)c1ccc(CS(C)(=O)=O)cc1-2,Activity,[2],92%
same,CL free,[3],533 mL/min/kg
same,AUC,[6],12 µM·h
same,Ki,[7],4.2 nM
same,Activity,[8],56%
Cn1cc2c3c(c[nH]c3c1=O)CN(c1ccccn1)c1ccc(CS(C)(=O)=O)cc1-2,inhibition in vivo at 0.31 mg/kg,OPM-2 [11],60%
same,Activity,[2],96%
same,CL free,[3],233 mL/min/kg
same,TGI,OPM-2 [5],Dose-dependent effect
same,inhibition in vivo at 0.62 mg/kg,OPM-2 [12],94%
same,Activity,Mus musculus [13],5%
same,Ki,[7],0.69 nM
same,Activity,[8],38%
same,Activity,Mus musculus [14],Non-Toxic
same,Activity,Mus musculus [15],0%
same,AUC/dose,Mus musculus [16],3.5 µM·h
